Test system: Rattus norvegicus
Assay: Antinociceptive activity in non-injured Sprague-Dawley rat model assessed as paw withdrawal latency at 10 ug/5 uL administered intrathecal after 5 mins by radiant heat assay relative to vehicle-treated control
Assay type: functional

CCC(=O)N(CC1CCCCN1[C@@H](Cc1ccccc1)C(=O)NCC(=O)N[C@H](C)C(=O)N[C@@H](Cc1c(C)cc(O)cc1C)C(=O)O)c1ccccc1 (stereo partly specified)
Activity: 63%

— ChEMBL document CHEMBL3751670, “Enkephalin analogues with N-phenyl-N-(piperidin-2-ylmethyl)propionamide derivatives: Synthesis and biological evaluations” (Bioorg Med Chem Lett, 2016)
